According to patent US5484803A, “Transcutaneous in vivo activation of photosensitive agents in blood” (priority 1995, dated 1996):
Where “and” joins values, the source holds several entries; their conditions need not be identical. Identical values can stand only once.

How the values were obtained:
[1] = Transcutaneous activation: photodegradation of BPD in plasma in vivo; design: species or system mice; conditions: for BPD in Plasma: individual values; for photodegraded BPD, Dose / Photodegraded BPD: in vivo
From the text: The light box was custom built at a workshop at the University of British Columbia. It was composed of two layers of 14 75 W tungsten-halogen reflector bulbs (General Electric), which illuminated the treatment area from the top and from the bottom. Light was filtered by 1) a set of filters comprising yellow and red plastic films which absorbed most of the light at wavelengths shorter than 600 nm and 2) 15 mm thick water filters which absorbed light above 900 nm. Cooling was provided by a steady flow of cold water in the water filters and by a set of 5 fans. The light intensity was measured by an IL 1350 Photometer (International Light).
The intensity of light delivered by the top and bottom sets of bulbs was not uniform. The bottom set delivered 33-40 mW/cm^2 as measured at floor level of the exposure chamber, while the top set delivered 27-33 mW/cm^2 as measured at the skin surface of the backs of the animals. The range described resulted from inconsistent influence at the horizontal plane of irradiation. In addition, mice moved about during light exposure, so that at various times different parts of their skin received different amounts of light. Therefore, the doses delivered to the surface of mice skin must be approximated and the calculations have been based on an intensity of 30 mW/cm^2.
(§1) Determination of BPD Concentration in Plasma: Plasma samples were obtained by centrifugation of blood collected from mice and stored frozen at -20° C. until assessment. The concentration of BPD in the samples was determined by fluorometry using a Jasco Model FP-770 (Japan Spectroscopic Co.) spectrofluorometer and a microcuvette (Far UV Quartz Cell, Starna Cells Inc.). Excitation and emission wavelengths were 439 and 699 nm, respectively. Plasma samples were diluted 20-fold with PBS containing 1% Triton® X-100 immediately before fluorescence was determined. BPD standards were prepared in 5% mouse plasma in PBS with 1% Triton® X-100. Under these conditions the relationship between the concentration of BPD and units of fluorescence was linear (correlation coefficient >0.99) for concentrations between 0.1 ng/ml and 1 μg/ml. The limit of detection was below 0.1 ng/ml sample which corresponded to 2 ng/ml plasma. […] The 699 nm fluorescence peak of BPD was virtually free from any interference.
Fourteen mice (weight 22±1 g) were used in this study. Twelve mice were injected with 20 μg (0.9 mg/kg) of liposomal BPD (in 200 μl) and kept in the dark for 1 hour before exposure to light. The mice each were exposed to light for 30 min, 1 hour or 1.5 hours, which delivered light doses to the skin surface of 54, 108 and 162 J/cm^2, respectively. Immediately after light exposure, blood samples were obtained. At the corresponding times, blood samples were obtained from two mice injected with BPD, but not exposed to light. Two additional mice were tested one hour after injection.
The aim of this study was to determine light penetration of the tissues to activate BPD. It was assumed that the substantial photodegradation of BPD in blood would represent substantial activation of BPD.
The BPD plasma concentration was then determined by fluorescence. The concentrations of unchanged BPD in the plasma of exposed and unexposed control mice were compared.

[2] = In vitro photodegradation of BPD in mouse blood; format: physicochemical; conditions: for photodegraded BPD, Dose / Photodegraded BPD: in vitro
Protocol: as §1
In order to assess the amount of light penetrating the tissues, in vitro experiments with mouse blood were carried out. The same light source was used, therefore the spectrum of light was the same. The light doses in this experiment were selected to mimic the doses in the in vivo experiments.
Liposomal BPD was added to freshly obtained heparinized mouse blood to achieve a concentration of 1 μg/ml, following which […] aliquots of blood were dispensed into 35 mm diameter petri dishes, which were placed in the light box and exposed to red light. The dishes were irradiated in the light box from below only. The intensity of light was 35 mW/cm^2. Three different light doses, entailing exposure of 30 min, 1 hour and 1.5-hour, were 63, 126 and 189 J/cm^2, respectively. Duplicate dishes were kept covered with aluminum foil. Immediately following light exposure, the blood was collected from the dishes. Then the plasma was separated by centrifugation. The control unexposed samples were processed at time points corresponding to the light exposed samples.
The concentration of BPD in plasma separated from light-exposed and unexposed blood was determined by fluorescence. About 51-83% of BPD was degraded by the ranges of light doses used.

[3] = BPD concentration in plasma of mice injected with P815 cells; format: in vivo, DBA/2 mice; conditions: for BPD in Plasma: DBA/2 mice injected with P815 cells; for BPD in Plasma, % of dark control: P815
Protocol: as §1
Male mature DBA/2 and Balb/c mice were injected intravenously with P815 and L1210 cells, respectively, preincubated for 1 hour with BPD (liposomal) at 100 ng/ml. Immediately before animal injection, an additional 2 μg of BPD was added to the syringes containing cells. […] One group of mice (shaved and depilated) was exposed immediately to red light (600-900 nm) in the light box for 1.5 hours (162 J/cm^2); the other group was kept in the dark as the control.
Immediately after exposure to light, blood samples were obtained by a heart puncture under halothane anesthesia. The concentration of BPD in plasma of light-exposed and control mice was determined by fluorescence. The number of clonogenic tumor cells in mouse blood was determined by culturing blood samples in culture medium supplemented with 10% bovine serum, using a limiting dilution assay protocol.

mice skin = assay: Skin photosensitivity and skin changes, transcutaneous activation study; format: in vivo
skin = conditions: DBA/2, 4 mg/kg, cited from earlier work
[4] = 1 1/2 h - C, no light, 2 1/2 h post injection, 0.9 mg/kg, 150 min
[5] = 1 1/2 h light, 162 J/cm^2, 2 1/2 h post injection, 0.9 mg/kg, 150 min
[6] = 30 min - C, no light, 1 1/2 h post injection, 0.9 mg/kg, 90 min
[7] = 30 min light, 54 J/cm^2, 1 1/2 h post injection, 0.9 mg/kg, 90 min

benzoprophyrin derivative monoacid ring A [BPD]
BPD in Plasma, Mean ± SD ([1]; 0 h - C, no light, 1 h post injection, 0.9 mg/kg): 1.243 ± 0.262 µg/mL | BPD in Plasma ([1]; 0 h - C, no light, 1 h post injection, 0.9 mg/kg, 60 min): 1.428 µg/mL and 1.058 µg/mL | BPD in Plasma, Mean ± SD [1, 4]: 0.690 ± 0.048 µg/mL | BPD in Plasma [1, 4]: 0.724 µg/mL and 0.656 µg/mL | BPD in Plasma, Mean ± SD [1, 5]: 0.168 ± 0.033 µg/mL | BPD in Plasma [1, 5]: 0.191 µg/mL and 0.145 µg/mL | BPD in Plasma, Mean ± SD [1, 6]: 0.930 ± 0.441 µg/mL | BPD in Plasma [1, 6]: 0.618 µg/mL and 1.242 µg/mL | BPD in Plasma, Mean ± SD [1, 7]: 0.596 ± 0.042 µg/mL | BPD in Plasma [1, 7]: 0.566 µg/mL and 0.626 µg/mL | BPD in Plasma, Mean ± SD ([1]; 1 h - C, no light, 2 h post injection, 0.9 mg/kg): 0.944 ± 0.421 µg/mL | BPD in Plasma ([1]; 1 h - C, no light, 2 h post injection, 0.9 mg/kg, 120 min): 0.646 µg/mL and 1.242 µg/mL | BPD in Plasma, Mean ± SD ([1]; 1 h light, 108 J/cm^2, 2 h post injection, 0.9 mg/kg): 0.301 ± 0.061 µg/mL | BPD in Plasma ([1]; 1 h light, 108 J/cm^2, 2 h post injection, 0.9 mg/kg, 120 min): 0.258 µg/mL and 0.344 µg/mL | photodegraded BPD, Dose ([1]; 54 J/cm^2): 0.334 µg/mL | Photodegraded BPD ([1]; 54 J/cm^2, 0.9 mg/kg): 36% | photodegraded BPD, Dose ([1]; 108 J/cm^2): 0.643 µg/mL | Photodegraded BPD ([1]; 108 J/cm^2, 0.9 mg/kg): 68% | photodegraded BPD, Dose ([1]; 162 J/cm^2): 0.522 µg/mL | Photodegraded BPD ([1]; 162 J/cm^2, 0.9 mg/kg): 76% | BPD photodegraded in blood in vivo ([1]; light doses of 54-162 J/cm^2, 0.9 mg/kg): 36-76% | plasma concentrations of BPD at the beginning of exposure to light ([1]; present study, 0.9 mg/kg, 1 hour after injection): above 3 μg/ml | BPD concentration in plasma separated from blood ([2]; 0 h, no light, BPD 1 μg/ml blood): 0.760 µg/mL | BPD concentration in plasma separated from blood ([2]; 1 1/2 h, 189 J/cm^2): 0.144 µg/mL | BPD concentration in plasma separated from blood ([2]; 1 1/2 h, no light): 0.830 µg/mL | BPD concentration in plasma separated from blood ([2]; 1/2 h, 63 J/cm^2): 0.394 µg/mL | BPD concentration in plasma separated from blood ([2]; 1/2 h, no light): 0.806 µg/mL | BPD degraded in vitro ([2]; 63-189 J/cm^2, about): 51-83% | BPD concentration in plasma separated from blood ([2]; 1 h, 126 J/cm^2): 0.220 µg/mL | BPD concentration in plasma separated from blood ([2]; 1 h, no light): 0.810 µg/mL | photodegraded BPD, Dose ([2]; 63 J/cm^2): 0.412 µg/mL | Photodegraded BPD ([2]; 63 J/cm^2, 1/2 h, 30 min): 51% | photodegraded BPD, Dose ([2]; 126 J/cm^2): 0.590 µg/mL | Photodegraded BPD ([2]; 126 J/cm^2, 1 h): 73% | photodegraded BPD, Dose ([2]; 189 J/cm^2): 0.686 µg/mL | Photodegraded BPD ([2]; 189 J/cm^2, 1 1/2 h, 90 min): 83% | Percent photodegraded ([3]; DBA/2, P815, 162 J/cm^2): 38% | BPD in Plasma ([3]; Dark control): 94.09 ng/mL | BPD in Plasma, % of dark control ([3]; Dark control): 100% | BPD in Plasma ([3]; Light exposed (162 J/cm^2)): 58.14 ng/mL | BPD in Plasma, % of dark control ([3]; Light exposed (162 J/cm^2)): 62% | skin photosensitivity (mice skin; 0.9 mg/kg liposomal BPD, 54-162 J/cm^2): did not cause skin photosensitivity | changes of the skin (mice skin; immediately or during the 2 week post-exposure period, 0.9 mg/kg, 30 mW/cm^2): no changes of the skin were observed | immediate post-exposure changes in the skin (skin; 153 J/cm^2 (170 mW/cm^2) at 3 h): no immediate post-exposure changes in the skin were observed | skin necrosis (skin; 153 J/cm^2 (170 mW/cm^2) at 3 h, within first 24 hour post-exposure, progressed up to 96 hours): severe skin necrosis | healing of wounds (skin; 153 J/cm^2, eventually): the wounds healed and the hair regrew
